{"source": "paper PMC9430770", "about": "(Microbiology Spectrum, 2022)", "key": {"[1]": {"test_system": "C. albicans eno1/eno1 mutant strain", "assay": "Galleria mellonella infection model, eno1/eno1 strain", "assay_type": "in vivo, Candida albicans", "settings": "G. mellonella, 10 mg/kg", "experimental": "To assess whether Eno1 is a therapeutic target of BE, we constructed a homozygous deletion strain for the ENO1 gene (eno1/eno1). We then investigated the difference in the antifungal efficacy of BE on the infections caused by the parent strain SN152 and the eno1/eno1 strain in the Galleria mellonella infection model. We divided the G. mellonella into 5 groups, with 10 larvae in each group. All 10 larvae died after a 24-h infection with the SN152 strain, while only 3 larvae died after 24 h when infected with the eno1/eno1 strain; the remaining larvae died within 7 days. Compared with the group infected with the parent strain, the survival time of the group infected with the eno1/eno1 strain was longer (P < 0.01) (Fig. 4A). […] The survival rate of larvae in the BE (10 mg/kg of body weight)-treated, SN152 strain-infected group was extended by 30%, compared with that in the group infected with the SN152 strain but without antifungal drug treatment (P < 0.001) (Fig. 4B). […] All 10 larvae in the BE-treated group died within 6 days, and all 10 larvae without BE treatment were killed within 7 days (Fig. 4C). However, FLC (10 mg/kg) can extend the survival rate of larvae infected by the eno1/eno1 strain by 60% (P < 0.01) (Fig. 4D) compared with the group infected with the eno1/eno1 strain without antifungal drug treatment.\nFIG 4 Eno1 acts as a therapeutic target of BE. […] Each curve represents a group of 10 larvae (n =10) monitored daily for survival for up to 10 days after infection. […]\nVirulence testing of C. albicans was done in Galleria mellonella as described previously ([56]). […] After growth in YPD media overnight at 30°C and 200 rpm, C. albicans SN152 cells or eno1/eno1 mutant cells were washed with PBS 3 times and diluted to the desired concentration (1 × 10^7 cells/mL) determined by counting with a hemacytometer. […] The death of G. mellonella was assessed daily and analyzed statistically by the Kaplan-Meier method (log-rank test)."}, "C. albicans SC5314": {"test_system": "C. albicans SC5314", "assay": "Spot assay on solid YPD or YPG plates containing BE", "assay_type": "cell-based, Candida albicans", "settings": "48 h, 30°C", "experimental": "To test whether BE antifungal activity in C. albicans as well as in mammalian cells was carbon source dependent ([27]), we investigated the activity of BE in spot assays on both solid yeast extract-peptone-dextrose (YPD) (containing 20 mg/mL glucose) and solid YPG (containing 2% [vol/vol] glycerol) media.\nFIG 1 The antifungal activity of BE depends on the carbon source. The overnight-cultured C. albicans SC5314 cells were diluted to 1 × 10^7 cells/mL and used as the initial concentration for four times of 10-fold dilution. Subsequently, 5 μL of a 10-fold dilution series was spotted onto YPD or YPG solid plates containing the indicated different concentrations of BE. After 48 h of incubation at 30°C, pictures of the growth of cells were taken.\nThe spotting assay was performed as described previously ([50]). Briefly, after grown overnight, mid-log-phase cultures of strains required for experimental conditions were adjusted to 1 × 10^7 cells/mL using a hemacytometer, then were 1:10 serially diluted in sterile PBS, and were spotted onto indicated plates with an indicated concentration of BE. After 48 h of incubation at 30°C, pictures of the growth of cells were taken."}}}
{"molecule": "O=c1cc(-c2ccccc2)oc2cc(O)c(O)c(O)c12", "note": "[BE, Baicalein]", "values": [{"measurement": "survival rate of larvae extended versus infected group without drug treatment", "setting": "[1]", "result": "no significant effect"}, {"measurement": "time within which all 10 larvae died", "setting": "[1]; eno1/eno1-infected", "result": "≤ 6", "unit": "days"}, {"measurement": "antifungal activity (spot assay)", "setting": "C. albicans SC5314; 64 μg/mL BE, solid YPD medium (20 mg/mL glucose)", "result": "had antifungal activity"}, {"measurement": "antifungal activity (spot assay)", "setting": "C. albicans SC5314; 64 μg/mL BE, solid YPG medium (2% glycerol)", "result": "not in solid YPG medium"}, {"measurement": "antifungal activity (spot assay)", "setting": "C. albicans SC5314; 128 μg/mL BE, solid YPD medium", "result": "potent antifungal activity"}, {"measurement": "growth of C. albicans (spot assay)", "setting": "C. albicans SC5314; 128 μg/mL BE, solid YPG medium", "result": "could still grow"}]}
